Data: a melting point compilation (Tetko et al.; mined from patent text by program, amines drawn as free bases though some values may be those of a salt)

Row | Structure (SMILES) | melting point [°C]
1 | CN1CCn2c(-c3ccc(F)c(-c4ccc(F)cc4C#N)c3)cnc2C1=O | 224
2 | Cc1cc2cc(CN3CCC(CCCC(=O)N4CCCCC4)CC3)cnc2cc1NC(=O)c1ccc(-c2ccc(F)cc2)cc1 | 179
3 | Cc1cc(Cl)c(N)c(Cl)c1 | 50 to 52
4 | CS(=O)(=O)Nc1ccc2c(c1)CCN(Cc1ccc3cc(NS(C)(=O)=O)ccc3n1)CC2 | 207 to 210
5 | Cc1nnsc1C(=O)Nc1ccccc1C(=O)O | 223
6 | CC(=O)N1CCS(=O)c2ccccc2C1 (centres undefined) | 156 to 157
7 | CC(=O)NC(NCC(=O)OCc1ccccc1)C(=O)NCc1ccccc1 (centres undefined) | 133 to 135
8 | Cn1nc(Br)c([N+](=O)[O-])c1NCCO | 150
9 | COc1ccc(-c2c(C)c(NC(=O)CC(C)(C)C)c(C)c3c2OCC3c2ccc(C(C)C)cc2)cn1 (centres undefined) | 120 to 123
10 | CC(C)(O)C1C(=O)N2C(C(=O)OCc3ccccc3)=C(Sc3ccccc3)CC12 (centres undefined) | 133 to 136
11 | CC#CC1(C2CC2)OC(=O)Nc2ccc(-c3cccc(Cl)c3)cc21 (centres undefined) | 178 to 179
12 | COc1ccc(C#Cc2cc(Cl)cc3c2OC(CC(F)(F)F)C(C(=O)O)=C3)cc1 (centres undefined) | 218 to 219
13 | CC(C)(C)OC(=O)Nc1ccc(C#Cc2ccc(F)cc2)cc1[N+](=O)[O-] | 157 to 158
14 | C=CCc1cc2c(c(CC=C)c1O)CCC(=O)N2CC(O)CC (centres undefined) | 115 to 116
15 | O=C(NC[C@@H](C(=O)NO)N1CCCCC1)c1ccc(OCc2cc(Cl)nc(Cl)c2)cc1 | 145
16 | CCOC(=O)C1C(=O)N(c2ccccc2)c2cc3ccoc3cc21 (centres undefined) | 108 to 110
17 | COc1ccc(-c2noc3c2C(c2ccc(OC)c(O)c2)C2=C(COC2=O)N3)cc1 (centres undefined) | 219 to 221
18 | Cc1cccc(S(=O)(=O)n2ccnc2)c1C#N | 93 to 95
19 | C=CCC(O)(CC=C)c1nc(-c2ccncc2)c(-c2ccc(Cl)cc2)n1CC | 159 to 160
20 | CC(C)(C)c1cc(C(=O)OCCC(=O)Oc2ccc(Cl)c(N)c2)cc(C(C)(C)C)c1O | 122 to 124
21 | CCOC(=O)c1cn(C2CC2)c2cc(F)c(F)cc2c1=O | 189 to 191
22 | O=C(O)C1CCc2c([nH]c3ccc(Cl)cc23)C1 (centres undefined) | 196 to 197
23 | COc1ccc(CCN2CCC(=C3c4ccccc4CCn4ncnc43)CC2)cc1 | 129
24 | CCCCCCCCCCCCCCOc1cccc(CBr)c1CBr | 55.7 to 56.5
25 | CC(O)c1ccc(CNC(=O)c2cccnc2Oc2cccnc2)s1 (centres undefined) | 92 to 94

Row | Structure (SMILES) | melting point [°C]
26 | O=C1c2ccc(NC(=O)C3CCCCC3)cc2C(=O)c2cc(NC(=O)C3CCCCC3)ccc21 | 269
27 | OC12CCCC1N=C(S)N2c1ccccn1 (centres undefined) | 126 to 127
28 | CCCC(CCC)N(C[C@H]1CC[C@H](CN(C(=O)Nc2ccc(N(C)C)cc2)C(CCC)CCC)CC1)C(=O)Nc1ccc(N(C)C)cc1 | 173 to 176
29 | CCC1(C)Cc2cc(OCC(=O)O)c(Cl)c(Cl)c2C1=O (centres undefined) | 168
30 | CCCc1nc2c(N)nc3ccccc3c2n1CCCCCC(=O)NC | 158 to 159
31 | CN1CCC(OC(=O)Cc2cnn(-c3ccccc3)c2-c2ccc(Cl)cc2)CC1 | 90 to 93
32 | Cc1c(-c2ccc(OC3CCCC3)cc2)n(Cc2ccc(OCCBr)cc2)c2ccc(OCc3ccccc3)cc12 | 110 to 112
33 | CN1CCN(c2cc(Cl)cc3c2c(=O)n(Cc2cccc(Br)c2)c(=O)n3Cc2ccccc2)CC1 | 154 to 157
34 | COc1ccc(CN2C(=O)C(O)(c3cc4c(C)noc4cc3O)c3ccccc32)cc1 (centres undefined) | 199 to 201
35 | COC(=O)c1nc(I)cc(N)c1Cl | 152 to 153
36 | O=C(CN1C(=O)C(c2ccccc2)c2ccccc21)N1CCOCC1 (centres undefined) | 153 to 154
37 | COc1cc(OCc2ccccn2)ccc1/C=C/c1cc(/C=C/c2ccc3ccn(C)c3c2)[nH]n1 | 172 to 174
38 | CNc1cc(C(=O)Nc2c(C)cc(C(F)(C(F)(F)F)C(F)(F)F)cc2C)ccc1C#N | 204 to 206
39 | N#Cc1ccc2[nH]c3c(ccc4c(C=O)c[nH]c43)c2c1 | > 250
40 | CCCN1C=CSC1S(=O)(=O)N=NC(=O)Nc1nc(OC)cc(OC)n1 (centres undefined) | 166 to 167
41 | Cc1cccc2c1N(CCN(C(C)C)C(C)C)C(=O)C2=O | 92 to 93
42 | COC(=O)c1cc(C(=O)OC)cc(N(C)C)c1 | 118 to 121
43 | Cc1cccc(C(=O)Cc2ccnc(-c3ccc(OC(F)(F)F)cc3)c2)n1 | 76 to 78
44 | Cc1c(NC(=O)c2ccc(-c3ccc(Cl)s3)cc2F)ccc2cc(CN3CCCCC3)cnc12 | 205 to 206
45 | CNC1CCN(c2nncc3cc(OC)c(OC)cc23)CC1 | 194 to 196
46 | O=c1[nH]c(-c2cccnc2O)nc2ccccc12 | 190 to 192
47 | CCN(CC)C(=O)c1cc(-c2ccc(OC)cc2)c2ccccc2c1OC | 129 to 130
48 | Cc1cccc(C2(CCC(=O)O)NC(=O)NC2=O)c1 (centres undefined) | 173 to 178
49 | COc1cc(C2CCCCC2)ccc1CCCC(=O)O | 104 to 105
